From patent US20260001853A1, “ASCORBIC ACID DERIVATIVE OR SALT THEREOF, AND COSMETIC THEREOF” (SEIWA KASEI COMPANY, LIMITED, priority 2022, published 2026) come the findings set out here.

Series [1] has as its system Normal human dermal fibroblasts. The series is described as follows: Collagen production promoting effect (ELISA of supernatant). It is filed as cell-based. Particulars: amount of collagen produced, % with control group taken as 100%; sample at 10 mmol/L or less, 48 hours, N=3. On the procedure: Normal human dermal fibroblasts were prepared in D-MEM containing 5% (v/v) fetal bovine serum to a cell density of […] cells/well, and pre incubated on a 96-well plate for 24 hours. After removing the medium, samples prepared to a predetermined concentration in D-MEM containing 5% (v/v) fetal bovine serum were added to each well and cultured for 48 hours. After completion of the culture, the amount of free collagen in the supernatant was quantified by ELISA method. The measurement was performed with N=3.
The amount of collagen produced when the samples were measured at a concentration of 10 mmol/L or less was compared with that of the control group, and the results (% values when the control group is taken as 100%) are shown in Tables 15 to 17 based on the following criteria. • <100%: ± • 100-120%: + • 120%: ++

Series [2] is described as follows: Stability test (residual rate by HPLC, odor, coloring). It is filed as physicochemical. The note with it: 1% aqueous solution; for Coloring / Odor: total score of 10 panelists. As to the method: With a dilute potassium hydroxide aqueous solution, 1% aqueous solution of each test sample was adjusted to pH 6, placed in a 50 mL screw tube, sealed, […], and then subjected to HPLC measurement (using a liquid chromatograph manufactured by Shimadzu Corporation) to determine the residual rate from the peak area. The residual rate, odor, and coloring degree were evaluated according to the following methods and criteria.
Residual rate: • ⊚: 90% or more • ◯: 80% or more, less than 90% • Δ: 60% or more, less than 80% • x: 20% or more, less than 60% • xx: Less than 20%
Evaluation was made by 10 panelists according to the following criteria. • 3: Almost odorless • 2: There is a slight strange odor. • 1: A strong odor is detected.
Based on the evaluation results, the following classification was made: • ⊚: Total score of 10 panelists is 25 or more • ◯: Total score of 10 panelists is 20-24 • Δ: Total score of 10 panelists is 16-19 • x: The total score of 10 panelists is 15 or less
Evaluation was made by 10 panelists according to the following criteria. • 3: Almost no change compared to immediately after preparation. • 2: Color changes compared to immediately after preparation. • 1: Strongly colored compared to immediately after preparation.
Based on the evaluation results, the following classification was made: • ◯: Total score of 10 panelists is 25 or more • Δ: Total score of 10 panelists is 16-24 • x: The total score of 10 panelists is 15 or less

Series [3] has as its system B16 melanoma 4A5 cells. Put plainly: Melanin production inhibitory effect (theophylline-induced melanin production). The format is cell-based, mouse. Particulars: melanin production inhibition rate, sample at a concentration of 10 mM or less, 3 days culture, theophylline 1 mmol/L, N=4. On the procedure: As a test of the whitening effect, the effect on theophylline-induced melanin production in B16 melanoma 4A5 cells was evaluated for the ascorbic acid derivatives of the present invention according to the following procedure. A similar evaluation was also performed for a known ascorbic acid derivative for comparison. The results are shown in Tables 9 to 11. • (1) B16 mouse melanoma 4A5 cells were seeded in a 48-well plate at a cell density of 8.0×10^3 cells/well. • (2) After culturing for 24 hours in Dulbecco's modified Eagle's medium (manufactured by SIGMA, hereinafter abbreviated as “D-MEM”) containing 10% fetal bovine serum, the medium was replaced with D-MEM containing 10% fetal bovine serum containing theophylline (final concentration 1 mmol/L) and a specified concentration of a sample. • (3) After culturing for 3 days in the presence of the sample, the medium was removed using an aspirator, distilled water was added, and the cells were disrupted by ultrasonication. • (4) The amount of protein was then quantified using a BCA protein assay kit (manufactured by PIERCE), and the amount of melanin produced was measured by an alkali solubilization method. Sodium hydroxide was added to the cell lysate to a final concentration of 1 mol/L, and the solution was dissolved by heating (60° C., 30 minutes), thereafter the absorbance at 405 nm was measured using a microplate reader. The amount of melanin was calculated from a calibration curve prepared using synthetic melanin (SIGMA) as a standard. The amount of melanin per unit protein was calculated by dividing the amount of melanin by the amount of protein. • (5) The melanin production inhibition rate was calculated using the following formula.
[In the formula, A represents the amount of melanin per unit protein (g/g) when the sample was added, B represents the amount of melanin per unit protein (g/g) in the normal group, and C represents the amount of melanin per unit protein (g/g) in the control group.]
The melanin production inhibition rate when the sample was measured at a concentration of 10 mM or less is expressed as follows. The measurement was performed with N=4. • <20%: ± • 20-40%: + • 40-60%: ++ • 60-100%: +++

Series [4] concerns Normal human dermal fibroblasts (NHDF). The series is described as follows: Hyaluronic acid production promoting effect (ELISA of supernatant). The format is cell-based. The note with it: amount of hyaluronic acid produced, % with control group taken as 100%; sample at 10 mmol/L or less, 48 hours, N=3. On the procedure:
Normal human dermal fibroblasts (NHDF) were prepared in D-MEM containing 5% (v/v) fetal bovine serum to a cell density of 2.5× 10^4 cells/well, and then pre-incubated on a 96-well plate for 24 hours. After removing the medium, samples prepared in serum-free D-MEM were added to each well and cultured for 48 hours. After the culture was completed, the amount of hyaluronic acid in the supernatant was quantified by ELISA method. The measurement was performed with N=3.
The amount of hyaluronic acid produced when the samples were measured at a concentration of 10 mmol/L or less was compared with that of the control group, and the results (% values when the control group is taken as 100%) are shown in Tables 18 to 20 based on the following criteria. • <100%: ± • 100-120%: + • 120-150%: ++ • 150%: +++
A general note: An ELISA detects its analyte on a solid surface through an enzyme-linked reagent.

[5] abbreviates: pH 6, stored at 50° C., four weeks later.
Setting [6] is: pH 6, stored at 50° C., two weeks later.

SMILES strings stand for the structures.

Consider `CCCCCCCCCCCCOC1=C(OCC(C)(C)O)C(=O)O[C@@H]1[C@@H](O)CO` [Synthesis Example 8, 2-O-(2-hydroxyisobutyl)-3-O-dodecyl ascorbic acid], for which the “Collagen production promoting effect” value in series [1] was “++ (120%: ++)”. In series [2] (pH 6, 50° C., initial), the Residual rate result was “⊚ (⊚: 90% or more)”, the Coloring entry is “◯ (◯: Total score of 10 panelists is 25 or more)” and the Odor entry is on record as “◯ (◯: Total score of 10 panelists is 20-24)”. Besides, in series [2] (setting [5]), the Residual rate result is reported as “⊚ (⊚: 90% or more)”, the Coloring entry was “◯ (◯: Total score of 10 panelists is 25 or more)” and the Odor entry is “◯ (◯: Total score of 10 panelists is 20-24)”. Further, in series [2] (setting [6]), the Residual rate result is “⊚ (⊚: 90% or more)”, the Coloring entry was “◯ (◯: Total score of 10 panelists is 25 or more)” and the Odor entry is “◯ (◯: Total score of 10 panelists is 20-24)”. Besides, the “Melanin production inhibition effect” value in series [3] is recorded as “++ (40-60%: ++)”. The “Hyaluronic acid production promoting effect” value in series [4] is listed as “+++ (150%: +++)”.
In the case of `CCCCOCC(O)COC1=C(OCC(C)(C)O)C(=O)OC1C(O)CO` (stereo not drawn) [Synthesis Example 14, 2-O-(2-hydroxyisobutyl)-3-O-(2-hydroxy-3-O-butyl) ascorbic acid], the “Collagen production promoting effect” value in series [1] is “++ (120%: ++)”. Further, in series [2] (pH 6, 50° C., initial), the Residual rate entry is “⊚ (⊚: 90% or more)”, the Coloring result is given as “◯ (◯: Total score of 10 panelists is 25 or more)” and the Odor result was “⊚ (⊚: Total score of 10 panelists is 25 or more)”. For the same compound, in series [2] (setting [5]), the Residual rate result is on record as “⊚ (⊚: 90% or more)”, the Coloring entry is on record as “◯ (◯: Total score of 10 panelists is 25 or more)” and the Odor entry is listed as “◯ (◯: Total score of 10 panelists is 20-24)”. In addition, in series [2] (setting [6]), the Residual rate result is given as “⊚ (⊚: 90% or more)”, the Coloring result is given as “◯ (◯: Total score of 10 panelists is 25 or more)” and the Odor result is “⊚ (⊚: Total score of 10 panelists is 25 or more)”. The “Melanin production inhibition effect” value in series [3] is “++ (40-60%: ++)”. Moreover, the “Hyaluronic acid production promoting effect” value in series [4] was “++ (120-150%: ++)”.
Take `CCCCCCCCOC1=C(OCC(C)(C)O)[C@@H]([C@@H](O)CO)OC1=O` [Synthesis Example 21, 2-O-octyl-3-O-(2-hydroxyisobutyl) ascorbic acid]: the “Collagen production promoting effect” value in series [1] is “++ (120%: ++)”. Further, the “Melanin production inhibition effect” value in series [3] is recorded as “++ (40-60%: ++)”. For the same compound, the “Hyaluronic acid production promoting effect” value in series [4] is “+++ (150%: +++)”.
In the case of `CCCCCCCCCCCCOC1=C(OCC(C)(C)O)[C@@H]([C@@H](O)CO)OC1=O` [Synthesis Example 23, 2-O-dodecyl-3-O-(2-hydroxyisobutyl) ascorbic acid], the “Collagen production promoting effect” value in series [1] was “++ (120%: ++)”. Further, the “Melanin production inhibition effect” value in series [3] is given as “+++ (60-100%: +++)”. The “Hyaluronic acid production promoting effect” value in series [4] is recorded as “++ (120-150%: ++)”.
Regarding `CCCCCCCCCCCCCCCCOC1=C(OCC(C)(C)O)[C@@H]([C@@H](O)CO)OC1=O` [Synthesis Example 25, 2-O-hexadecyl-3-O-(2-hydroxyisobutyl) ascorbic acid], the “Collagen production promoting effect” value in series [1] was “++ (120%: ++)”. In addition, the “Melanin production inhibition effect” value in series [3] is “+ (20-40%: +)”. In series [4], the “Hyaluronic acid production promoting effect” value was “++ (120-150%: ++)”.
For `C=CCOC1=C(OCC(C)(C)O)[C@@H]([C@@H](O)CO)OC1=O` [Synthesis Example 26, 2-O-allyl-3-O-(2-hydroxyisobutyl) ascorbic acid] the same measures were “++ (120%: ++)”, “+ (20-40%: +)” and “++ (120-150%: ++)”.
In the same order, the values of `CC(C)(O)COC1=C(OCc2ccccc2)C(=O)O[C@@H]1[C@@H](O)CO` [Synthesis Example 27, 2-O-benzyl-3-O-(2-hydroxyisobutyl) ascorbic acid] are “++ (120%: ++)”, “++ (40-60%: ++)” and “+++ (150%: +++)”.
In the same order, the values of `CCCOC1=C(OCC(C)(C)O)C(=O)O[C@@H]1[C@@H](O)CO` [Synthesis Example 32, 2-O-(2-hydroxyisobutyl)-3-O-propylascorbic acid] are “++ (120%: ++)”, “++ (40-60%: ++)” and “++ (120-150%: ++)”.
`CCCOC1=C(OCC(C)(C)O)[C@@H]([C@@H](O)CO)OC1=O` [Synthesis Example 33, 2-O-propyl-3-O-(2-hydroxyisobutyl) ascorbic acid]: in series [1], the “Collagen production promoting effect” value is “++ (120%: ++)”. Further, the “Melanin production inhibition effect” value in series [3] was “++ (40-60%: ++)”. Besides, the “Hyaluronic acid production promoting effect” value in series [4] was “++ (120-150%: ++)”.
In the same order, the values of `CC(O)COC1=C(OCC(C)(C)O)C(=O)O[C@@H]1[C@@H](O)CO` (stereo partly drawn) [Synthesis Example 34, 2-O-(2-hydroxyisobutyl)-3-O-(2-hydroxypropyl) ascorbic acid] are “+ (100-120%: +)”, “+++ (60-100%: +++)” and “++ (120-150%: ++)”.
In the same order, the values of `CCC(O)COC1=C(OCC(C)(C)O)C(=O)O[C@@H]1[C@@H](O)CO` (stereo partly drawn) [Synthesis Example 35, 2-O-(2-hydroxyisobutyl)-3-O-(2-hydroxybutyl) ascorbic acid] are “++ (120%: ++)”, “++ (40-60%: ++)” and “++ (120-150%: ++)”.
